How the values were obtained:
PiAA7A = molecular target: T1, PiAA7A (Phytophthora infestans, UniProt D0MXI7); details: co-substrate O2; 25 mM MES pH 6, 20 °C, 1 nM enzyme; sigmoidal (allosteric) model
T1 construct: gene PITG_02928

PiAA7D = molecular target: T2, PiAA7D (Phytophthora infestans, UniProt D0N574); details: co-substrate O2; 25 mM MES pH 6, 20 °C, 1 nM enzyme; sigmoidal (allosteric) model
T2 construct: gene PITG_06591
T2 sequence (D0N574 27-508 limits assumed): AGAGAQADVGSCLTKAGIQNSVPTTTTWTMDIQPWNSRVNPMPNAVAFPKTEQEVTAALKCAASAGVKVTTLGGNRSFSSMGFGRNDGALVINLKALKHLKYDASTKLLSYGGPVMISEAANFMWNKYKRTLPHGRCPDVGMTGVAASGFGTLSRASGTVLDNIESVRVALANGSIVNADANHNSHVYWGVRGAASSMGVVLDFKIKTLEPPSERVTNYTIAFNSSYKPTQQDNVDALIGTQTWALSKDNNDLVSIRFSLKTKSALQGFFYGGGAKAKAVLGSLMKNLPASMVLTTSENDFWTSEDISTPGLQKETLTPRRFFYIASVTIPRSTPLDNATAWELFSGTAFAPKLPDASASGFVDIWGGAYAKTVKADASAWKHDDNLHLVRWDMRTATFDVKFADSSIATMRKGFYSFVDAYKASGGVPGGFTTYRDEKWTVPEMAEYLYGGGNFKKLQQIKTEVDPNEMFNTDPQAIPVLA

T1 sequence (D0MXI7 27-509 limits assumed): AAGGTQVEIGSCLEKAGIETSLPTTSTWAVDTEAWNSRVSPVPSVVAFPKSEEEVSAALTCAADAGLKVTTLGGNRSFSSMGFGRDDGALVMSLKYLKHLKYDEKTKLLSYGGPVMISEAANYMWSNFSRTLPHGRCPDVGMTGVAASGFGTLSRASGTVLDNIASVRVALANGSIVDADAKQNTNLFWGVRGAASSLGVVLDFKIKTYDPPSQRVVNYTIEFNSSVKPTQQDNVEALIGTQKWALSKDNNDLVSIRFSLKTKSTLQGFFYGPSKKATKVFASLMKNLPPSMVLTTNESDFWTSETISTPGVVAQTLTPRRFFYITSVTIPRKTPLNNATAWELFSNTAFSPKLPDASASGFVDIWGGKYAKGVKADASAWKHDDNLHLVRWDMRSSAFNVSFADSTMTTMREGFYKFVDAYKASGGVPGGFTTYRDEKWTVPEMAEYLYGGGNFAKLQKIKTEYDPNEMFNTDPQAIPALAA

SMILES | KM (PiAA7A) | KM (PiAA7D)
O=C(O)[C@H]1O[C@H](O[C@@H]2[C@H](O)[C@@H](O)[C@@H](O[C@@H]3[C@H](O)[C@@H](O)C(O)O[C@@H]3C(=O)O)O[C@@H]2C(=O)O)[C@H](O)[C@@H](O)[C@H]1O (some centres unmarked) [OG3] | a sigmoidal (allosteric) model was found to be more appropriate for PiAA7A with OG3 | –
O=C(O)[C@H]1O[C@H](O[C@@H]2[C@H](O)[C@@H](O)[C@@H](O[C@@H]3[C@H](O)[C@@H](O)[C@@H](O[C@@H]4[C@H](O)[C@@H](O)C(O)O[C@@H]4C(=O)O)O[C@@H]3C(=O)O)O[C@@H]2C(=O)O)[C@H](O)[C@@H](O)[C@H]1O (some centres unmarked) [OG4] | – | PiAA7D with OG4

Reference: publication PMC12537922 (Nature Communications, 2025)
